Data as given in patent US7982043B2, “Protein tyrosine kinase enzyme inhibitors” (Wyeth LLC, priority 2003, dated 2011).
Values after ≈ are worked out from the molar mass of the structure shown. Where two headings read alike, the source gives them in different places.

Columns and labels:
Assay type in all cases: cell-based
[1] = target: mouse fibroblast cell line transfected with the HER-2 oncogene (3T3/neu) (UniProt P04626, cells depend on it, species not given); assay: Cell proliferation assay (SRB), 3T3/neu; conditions: for GI50: read-out: CELL IC50 3T3/NEU (converted)
A431 cells = assay: Cell proliferation assay (SRB), A431; conditions: for IC50: Homo sapiens, A-431, 48 h, read-out: CELL IC50 A431
SK-Br-3 cells = assay: Cell proliferation assay (SRB), SK-Br-3; conditions: EGFR −, Her-2 +++, 2 days, SRB; for IC50: Homo sapiens, SK-BR-3, 48 h, read-out: CELL IC50 SKBr3
MDA-MB-435 cells = assay: Cell proliferation assay (SRB), MDA-MB-435; conditions: EGFR −, Her-2 −, 2 days, SRB; for IC50: Homo sapiens, MDA-MB-435, 48 h, read-out: CELL IC50 MDA-MB-435
SW620 cells = assay: Cell proliferation assay (SRB), SW620; conditions: EGFR −, Her-2 −, 2 days, SRB; for IC50: Homo sapiens, SW-620, 48 h, read-out: CELL IC50 SW620

Compound | GI50 ([1]; EGFR −, Her-2 +++, 2 days, SRB) | IC50 (A431 cells; EGFR +++, Her-2 +, 2 days, SRB) | IC50 (SK-Br-3 cells) | IC50 (MDA-MB-435 cells) | IC50 (SW620 cells) | also measured
CCOc1cc2ncc(C#N)c(Nc3ccc(Sc4nc(-c5ccccc5)cs4)c(C(F)(F)F)c3)c2cc1[N+](=O)[O-] [Example 67, 7-ethoxy-6-nitro-4-[4-[(4-phenyl-1,3-thiazol-2-yl)sulfanyl]-3-(trifluoromethyl)anilino]-3-quinolinecarbonitrile] | 1.15 µM | 0.76 µg/mL (≈ 1.28 µM) | 0.268 µg/mL (≈ 0.451 µM) | 0.4 µg/mL (≈ 0.674 µM) | 0.4 µg/mL (≈ 0.674 µM) | –
COc1cc2ncc(C#N)c(Nc3ccc(Sc4nc5ccccc5c(=O)[nH]4)c(Cl)c3)c2cc1NC(=O)/C=C/CN(C)C [Example 46] | – | – | – | – | – | CELL IC50 3T3/NEU ([1]; mouse fibroblast cell line transfected with the her-2 oncogene (3t3/neu)): 0.15 µg/mL; CELL IC50 A431 (A431 cells; EGFR +++, Her-2 +, 2 days, SRB): 0.34 µg/mL; CELL IC50 SKBr3 (SK-Br-3 cells): 0.06 µg/mL; CELL IC50 MDA-MB-435 (MDA-MB-435 cells): >5 µg/mL; CELL IC50 SW620 (SW620 cells): >5 µg/mL
COc1cc2c(Nc3ccc(Sc4nccn4C)c(Cl)c3)c(C#N)cnc2cc1OCCCN1CCOCC1 [Example 51, 4-{3-chloro-4-[(1-methyl-1H-imidazol-2-yl)sulfanyl]anilino}-6-methoxy-7-[3-(4-morpholinyl)propoxy]-3-quinolinecarbonitrile] | 0.347 µM | 0.775 µg/mL (≈ 1.37 µM) | 0.32 µg/mL (≈ 0.566 µM) | – | 2.18 µg/mL (≈ 3.86 µM) | –
CCOc1cc2ncc(C#N)c(Nc3ccc4c(=O)[nH][nH]c(=O)c4c3)c2cc1OCC [Example 25, 4-(1,4-Dioxo-1,2,3,4-tetrahydro-phthalazin-6-ylamino)-6,7-diethoxy-quinoline-3-carbonitrile] | > 12 µM | – | – | – | – | –
CCOc1cc2ncc(C#N)c(Nc3ccc4c(c3)C(=O)OC4)c2cc1OCC [Example 29, 6,7-Diethoxy-4-(3-oxo-1,3-dihydro-isobenzofuran-5-ylamino)-quinoline-3-carbonitrile] | 8.48 µM | – | – | – | – | –
CCOc1cc2ncc(C#N)c(Nc3ccc(Sc4nccc(C)n4)c(Cl)c3)c2cc1NC(=O)/C=C/CN(C)C [Example 65, (E)-N-(4-{3-chloro-4-[(4-methyl-2-pyrimidinyl)sulfanyl]anilino}-3-cyano-7-ethoxy-6-quinolinyl)-4-(dimethylamino)-2-butenamide] | 0.00523 µM | 0.12 µg/mL (≈ 0.209 µM) | 0.001 µg/mL (≈ 0.00174 µM) | 0.3 µg/mL (≈ 0.523 µM) | 0.2 µg/mL (≈ 0.348 µM) | –
C=CC(=O)Nc1ccc2ncc(C#N)c(Nc3ccc(Sc4nccn4C)c(Cl)c3)c2c1 [Example 21, N-{4-[3-Chloro-4-(1-methyl-1H-imidazol-2-ylsulfanyl)-phenylamino]-3-cyano-quinolin-6-yl}-acrylamide] | 1 µM | 0.62 µg/mL (≈ 1.35 µM) | 0.01 µg/mL (≈ 0.0217 µM) | 4.57 µg/mL (≈ 9.91 µM) | 1.84 µg/mL (≈ 3.99 µM) | –
CCOc1cc2ncc(C#N)c(Nc3ccc(Sc4nccc(C)n4)c(Cl)c3)c2cc1[N+](=O)[O-] [Example 63, 4-{3-chloro-4-[(4-methyl-2-pyrimidinyl)sulfanyl]anilino}-7-ethoxy-6-nitro-3-quinolinecarbonitrile] | 3.02 µM | 1.2 µg/mL (≈ 2.43 µM) | 0.45 µg/mL (≈ 0.913 µM) | 1.3 µg/mL (≈ 2.64 µM) | 0.9 µg/mL (≈ 1.83 µM) | –
COc1cc2ncc(C#N)c(Nc3ccc(NCc4cccnc4)c(Cl)c3)c2cc1[N+](=O)[O-] [Example 57, 4-{3-chloro-4-[(3-pyridinylmethyl)amino]anilino}-7-methoxy-6-nitro-3-quinolinecarbonitrile] | 8.74 µM | 1.6 µg/mL (≈ 3.47 µM) | 0.726 µg/mL (≈ 1.58 µM) | 1.87 µg/mL (≈ 4.06 µM) | 3.21 µg/mL (≈ 6.96 µM) | –
COc1cc2ncc(C#N)c(Nc3ccc(N(Cc4cccnc4)C(C)=O)c(Cl)c3)c2cc1NC(=O)/C=C/CN(C)C [Example 47] | – | – | – | – | – | CELL IC50 3T3/NEU ([1]; EGFR −, Her-2 +++, 2 days, SRB): >5 µg/mL; CELL IC50 A431 (A431 cells; EGFR +++, Her-2 +, 2 days, SRB): 0.646 µg/mL; CELL IC50 SKBr3 (SK-Br-3 cells): >5 µg/mL; CELL IC50 MDA-MB-435 (MDA-MB-435 cells): 1.16 µg/mL; CELL IC50 SW620 (SW620 cells): 1.64 µg/mL
CCOc1cc2ncc(C#N)c(Nc3ccc(Sc4nc(-c5ccccc5)cs4)c(Cl)c3)c2cc1NC(=O)/C=C/CN(C)C [Example 72, (E)-N-(4-{3-chloro-4-[(4-phenyl-1,3-thiazol-2-yl)sulfanyl]anilino}-3-cyano-7-ethoxy-6-quinolinyl)-4-(dimethylamino)-2-butenamide] | 0.0312 µM | 0.24 µg/mL (≈ 0.374 µM) | 0.006 µg/mL (≈ 0.00936 µM) | 0.18 µg/mL (≈ 0.281 µM) | 0.54 µg/mL (≈ 0.842 µM) | –
CCOc1cc2ncc(C#N)c(Nc3ccc4cn[nH]c4c3)c2cc1OC [Example 31, 7-Ethoxy-4-(1H-indazol-6-ylamino)-6-methoxy-quinoline-3-carbonitrile] | 0.0743 µM | – | – | – | – | –
CCOc1cc2ncc(C#N)c(Nc3ccc(Nc4nnc(C(F)(F)F)s4)c(Cl)c3)c2cc1NC(=O)/C=C/CN(C)C [Example 53, (E)-N-[4-(3-chloro-4-{[5-(trifluoromethyl)-1,3,4-thiadiazol-2-yl]amino}anilino)-3-cyano-7-ethoxy-6-quinolinyl]-4-(dimethylamino)-2-butenamide] | 1.44 µM | 0.728 µg/mL (≈ 1.18 µM) | 0.179 µg/mL (≈ 0.29 µM) | 0.95 µg/mL (≈ 1.54 µM) | 1.05 µg/mL (≈ 1.7 µM) | –
CCOc1cc2ncc(C#N)c(Nc3ccc4c(c3)OCCO4)c2cc1OCC [Example 23, 4-(2,3-Dihydro-benzo[1,4]dioxin-6-ylamino)-6,7-diethoxy-quinoline-3-carbonitrile] | 0.958 µM | – | – | – | – | –
CCOc1cc2ncc(C#N)c(Nc3ccc(Oc4ccncc4)c(Cl)c3)c2cc1NC(=O)/C=C/CN(C)C [Example 56, (E)-N-{4-[3-chloro-4-(4-pyridinyloxy)anilino]-3-cyano-7-ethoxy-6-quinolinyl}-4-(dimethylamino)-2-butenamide] | > 9.21 µM | – | 1.51 µg/mL (≈ 2.78 µM) | 2.06 µg/mL (≈ 3.79 µM) | > 5 µg/mL | IC50 (A431 cells): 3.27 µg/mL (≈ 6.02 µM)
CCOc1cc2ncc(C#N)c(Nc3ccc4c(c3)CCC4=O)c2cc1OCC [Example 28, 6,7-Diethoxy-4-(1-oxo-indan-5-ylamino)-quinoline-3-carbonitrile] | 0.0803 µM | 0.0181 µg/mL (≈ 0.0467 µM) | – | – | 0.0244 µg/mL (≈ 0.063 µM) | –
CCOc1cc2ncc(C#N)c(Nc3ccc4c(c3)C(=O)NCC(=O)N4C)c2cc1OCC [Example 33, 6,7-Diethoxy-4-(1-methyl-2,5-dioxo-2,3,4,5-tetrahydro-1H-benzo[e][1,4]diazepin-7-ylamino)-quinoline-3-carbonitrile] | > 11.2 µM | – | – | – | – | –
CCOc1cc2ncc(C#N)c(Nc3ccc4c(c3)CCC4)c2cc1OCC [Example 26, 6,7-Diethoxy-4-(indan-5-ylamino)-quinoline-3-carbonitrile] | 0.053 µM | – | – | – | 0.294 µg/mL (≈ 0.787 µM) | –
CCOc1cc2ncc(C#N)c(Nc3ccc4[nH]c(=O)oc(=O)c4c3)c2cc1OCC [Example 27, 4-(2,4-Dioxo-1,4-dihydro-2H-benzo[d][1,3]oxazin-6-ylamino)-6,7-diethoxy-quinoline-3-carbonitrile] | 11 µM | – | – | – | – | –
CCOc1cc2c(Nc3ccc4cn[nH]c4c3)c(C#N)cnc2cc1OC [Example 32, 6-Ethoxy-4-(1H-indazol-6-ylamino)-7-methoxy-quinoline-3-carbonitrile] | 13.4 µM | – | – | – | – | –
COCCOc1cc2ncc(C#N)c(Nc3ccc4cn[nH]c4c3)c2cc1OCCOC [Example 24, 4-(1H-Indazol-6-ylamino)-6,7-bis-(2-methoxy-ethoxy)-quinoline-3-carbonitrile] | > 11.5 µM | – | – | – | – | –
COc1cc2c(Nc3ccc(Sc4nccn4C)c(Cl)c3)c(C#N)cnc2cc1OCCCn1ccnn1 [Example 73, 4-{3-chloro-4-[(1-methyl-1H-imidazol-2-yl)sulfanyl]anilino}-6-methoxy-7-[3-(1H-1,2,3-triazol-1-yl)propoxy]-3-quinolinecarbonitrile] | 1.78 µM | 1.83 µg/mL (≈ 3.35 µM) | 0.104 µg/mL (≈ 0.19 µM) | – | 3.69 µg/mL (≈ 6.75 µM) | –
